The results in this text go back to ChEMBL document CHEMBL3596163, “Discovery of imidazo[1,5-a]pyridines and -pyrimidines as potent and selective RORc inverse agonists” (Bioorg Med Chem Lett, 2015).

Activity calls are given as the source filed them. No cut-off for these calls is given here.

Assay [1] concerns PBMC. The experiment in a line: Inhibition of IFNgamma production in human PBMC after 48 hrs by Sandwich ELISA. Type of assay: functional, cell-based.
In assay [2] the target is T1, Oxysterols receptor LXR-beta (Homo sapiens, UniProt P55055).
T1 sequence (P55055 whole entry): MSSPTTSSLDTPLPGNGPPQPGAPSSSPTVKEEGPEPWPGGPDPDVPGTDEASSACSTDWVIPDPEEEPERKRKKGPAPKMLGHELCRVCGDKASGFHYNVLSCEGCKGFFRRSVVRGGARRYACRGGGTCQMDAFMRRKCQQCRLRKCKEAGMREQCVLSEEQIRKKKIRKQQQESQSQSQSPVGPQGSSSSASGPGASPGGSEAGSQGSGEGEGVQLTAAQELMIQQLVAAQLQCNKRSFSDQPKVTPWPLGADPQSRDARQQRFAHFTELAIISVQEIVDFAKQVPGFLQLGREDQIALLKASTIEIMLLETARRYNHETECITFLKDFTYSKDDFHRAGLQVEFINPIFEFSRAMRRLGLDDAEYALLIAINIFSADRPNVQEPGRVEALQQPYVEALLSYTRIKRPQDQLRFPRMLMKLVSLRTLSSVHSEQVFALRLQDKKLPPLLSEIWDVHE
In words: Agonist activity at GAL4-fused human LXRbeta expressed in HEK293T cells assessed as activation of basal transcriptional activity after 20 hrs by dual-glo luciferase reporter gene assay. Type of assay: cell-based, HEK-293T. Background: A reporter such as luciferase makes a cellular process visible.

For assay [3], the system named is PBMC. The experiment in a line: Antiinflammatory activity in human PBMC assessed as inhibition of IL-17 production after 48 hrs by Sandwich ELISA relative to control. Format: functional.
In assay [4] the test system is PBMC. In words: Cytotoxicity against human PBMC assessed as effect on cell physiology after 48 hrs by CellTiter-Glo assay. Format: cell-based. Background: ATP-based viability assays read luminescence as a measure of living cells.
The target in assay [5] is T2, Oxysterols receptor LXR-alpha (Homo sapiens) (UniProt Q13133).
T2 sequence (whole entry): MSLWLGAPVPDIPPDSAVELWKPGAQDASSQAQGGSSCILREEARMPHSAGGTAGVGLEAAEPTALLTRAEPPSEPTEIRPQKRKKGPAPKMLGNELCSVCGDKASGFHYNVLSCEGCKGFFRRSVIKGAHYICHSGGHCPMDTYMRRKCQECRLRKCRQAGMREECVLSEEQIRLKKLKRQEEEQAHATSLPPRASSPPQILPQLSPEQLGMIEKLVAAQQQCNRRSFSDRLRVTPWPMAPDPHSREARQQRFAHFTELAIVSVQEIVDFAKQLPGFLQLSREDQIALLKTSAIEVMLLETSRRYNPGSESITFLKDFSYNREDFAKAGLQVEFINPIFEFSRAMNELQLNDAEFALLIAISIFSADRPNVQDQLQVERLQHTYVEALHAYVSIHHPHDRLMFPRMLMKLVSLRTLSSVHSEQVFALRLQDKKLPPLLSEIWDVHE
The experiment in a line: Antagonist activity at GAL4-fused human LXRalpha expressed in HEK293T cells assessed as inhibition of T0901317-induced basal transcriptional activity up to 10 uM after 20 hrs by dual-glo luciferase reporter gene assay. The note with it: HEK-293T. Type of assay: cell-based.

Assay [6] addresses T3, Bile acid receptor (Homo sapiens, UniProt Q96RI1).
T3 sequence (Q96RI1 whole entry): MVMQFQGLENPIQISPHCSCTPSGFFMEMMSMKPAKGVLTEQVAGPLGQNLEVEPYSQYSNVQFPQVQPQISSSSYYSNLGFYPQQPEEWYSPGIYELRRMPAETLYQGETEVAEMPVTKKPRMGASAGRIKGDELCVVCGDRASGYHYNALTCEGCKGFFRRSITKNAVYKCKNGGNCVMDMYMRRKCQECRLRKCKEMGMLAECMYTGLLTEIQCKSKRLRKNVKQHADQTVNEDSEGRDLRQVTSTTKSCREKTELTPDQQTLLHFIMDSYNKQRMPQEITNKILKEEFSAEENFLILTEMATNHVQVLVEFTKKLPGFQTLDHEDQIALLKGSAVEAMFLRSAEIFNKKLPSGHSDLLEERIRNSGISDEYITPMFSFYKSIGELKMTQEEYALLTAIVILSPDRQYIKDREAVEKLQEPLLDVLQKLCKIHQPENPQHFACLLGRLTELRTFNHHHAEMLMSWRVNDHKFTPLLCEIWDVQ
In words: Agonist activity at GAL4-fused human FXR expressed in HEK293T cells assessed as activation of basal transcriptional activity after 20 hrs by dual-glo luciferase reporter gene assay. Format: cell-based, HEK-293T.

In assay [7] the target is T4, Nuclear receptor subfamily 1 group I member 2 (Homo sapiens, UniProt O75469).
T4 sequence (O75469 whole entry): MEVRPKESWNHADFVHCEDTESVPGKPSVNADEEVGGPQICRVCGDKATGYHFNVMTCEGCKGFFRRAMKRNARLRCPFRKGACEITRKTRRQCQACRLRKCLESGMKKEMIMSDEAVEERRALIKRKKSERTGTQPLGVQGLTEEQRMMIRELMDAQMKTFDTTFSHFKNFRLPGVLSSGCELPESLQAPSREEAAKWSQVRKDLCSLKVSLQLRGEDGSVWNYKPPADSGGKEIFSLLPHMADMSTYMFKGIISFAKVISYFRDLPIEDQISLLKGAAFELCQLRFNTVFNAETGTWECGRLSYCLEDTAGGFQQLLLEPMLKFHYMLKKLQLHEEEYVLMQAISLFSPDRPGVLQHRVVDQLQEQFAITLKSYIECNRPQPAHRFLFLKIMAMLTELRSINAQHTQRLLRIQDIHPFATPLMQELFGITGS
The experiment in a line: Agonist activity at GAL4-fused human PXR expressed in HEK293T cells assessed as activation of basal transcriptional activity after 20 hrs by dual-glo luciferase reporter gene assay. Type of assay: cell-based, HEK-293T.

Assay [8] addresses T5, Nuclear receptor ROR-alpha (Homo sapiens, UniProt P35398).
T5 sequence (P35398 whole entry): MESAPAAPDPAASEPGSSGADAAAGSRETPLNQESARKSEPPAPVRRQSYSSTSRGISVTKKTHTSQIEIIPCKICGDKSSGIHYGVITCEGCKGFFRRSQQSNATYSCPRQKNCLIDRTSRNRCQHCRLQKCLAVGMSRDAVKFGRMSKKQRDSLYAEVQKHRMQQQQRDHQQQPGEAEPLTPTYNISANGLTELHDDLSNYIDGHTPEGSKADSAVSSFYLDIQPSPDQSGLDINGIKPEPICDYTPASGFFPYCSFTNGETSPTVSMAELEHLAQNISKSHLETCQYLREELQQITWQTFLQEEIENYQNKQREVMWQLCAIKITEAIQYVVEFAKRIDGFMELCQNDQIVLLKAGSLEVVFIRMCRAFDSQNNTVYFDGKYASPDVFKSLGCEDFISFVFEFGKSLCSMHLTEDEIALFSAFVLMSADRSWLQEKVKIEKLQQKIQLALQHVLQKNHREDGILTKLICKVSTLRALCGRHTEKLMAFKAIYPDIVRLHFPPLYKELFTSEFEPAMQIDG
In words: Inverse agonist activity at GAL4-fused human RORa expressed in HEK293T cells assessed as suppression of basal transcriptional activity after 20 hrs by dual-glo luciferase reporter gene assay. Format: cell-based, HEK-293T.

Assay [9] concerns the target T6, Oxysterols receptor LXR-beta (Homo sapiens) (UniProt P55055).
T6 sequence (whole entry): T1 sequence (P55055 whole entry)
In words: Antagonist activity at GAL4-fused human LXRbeta expressed in HEK293T cells assessed as inhibition of T0901317-induced basal transcriptional activity up to 10 uM after 20 hrs by dual-glo luciferase reporter gene assay. Type of assay: cell-based. As to conditions: HEK-293T.

As usually defined, the EC50 is the concentration at which the effect is half-maximal. Turning to `O=C(O)c1ccc(-c2nc(C(=O)c3c(Cl)cccc3C3CC3)n3c2CCCC3)c(F)c1`, the 50% effective concentration (EC50) in [1], in [2], in assay [4], in assay [6], in assay [7] and in assay [8] was above 10 µM throughout. Moreover, the “%max” value in assay [3] is given as 72%. Besides, the inhibition result in assay [5] and in assay [9] was “inactive” each time.

In the case of `O=C(O)c1ccc(-c2nc(C(=O)c3c(Cl)cccc3C(F)(F)F)n3c2CCCC3)c(F)c1`, the EC50 in assay [1], in assay [2], in [4], in assay [6], in assay [7] and in [8] was above 10 µM each time. Also, the “%max” value in [3] came to 64%. The inhibition result in [5] and in assay [9] was “inactive” each time.

As to `O=C(O)c1ccc(-c2nc(C(=O)c3c(Cl)cccc3C(F)(F)F)n3ccccc23)c(F)c1`, the 50% effective concentration (EC50) in assay [1], in assay [2], in assay [4], in [6], in [7] and in assay [8] was above 10 µM throughout. Also, in [3], the “%max” value turned out to be 63%. Further, the inhibition entry in assay [5] and in assay [9] was “inactive” in each case.

With `O=C(O)c1ccc(-c2nc(C(=O)c3c(Cl)cccc3C3CC3)n3cccnc23)cc1O`, the EC50 in assay [1], in assay [2], in [4], in [6], in assay [7] and in assay [8] was above 10 µM each time. Besides, the “%max” value in assay [3] came to 73%. In addition, the inhibition result in assay [5] and in assay [9] was “inactive” in each case.

With `O=C(O)c1ccc(-c2nc(C(=O)c3c(Cl)cccc3C(F)(F)F)n3ccccc23)cc1O`, the EC50 in [1], in [2], in assay [4], in assay [6], in assay [7] and in assay [8] was above 10 µM throughout. Also, the “%max” value in assay [3] amounted to 70%. The inhibition entry in [5] and in [9] was “inactive” each time.

As to `O=C(O)c1ccc(-c2nc(C(=O)c3c(Cl)cccc3C(F)(F)F)n3ccccc23)cc1`, the EC50 in assay [1], in [2], in assay [4], in [6], in assay [7] and in [8] was above 10 µM throughout. Also, the “%max” value in assay [3] is on record as 69%. Besides, the inhibition result in assay [5] and in assay [9] was “inactive” each time.
